Assay results published in the supplement of paper PMC10307832.

Experiments:
Assay in all cases: relative viability (nuclei count vs DMSO), 5 days (fraction); higher = more cells survive
[1] = test system: NCI-H460
In short: (§1)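 Relative viability equals treated-well nuclei counts divided by vehicle-well nuclei counts. Counts came from 4× images of lung cancer cell lines grown in 1536-well plates for 5 days after pin-tool dosing on the day after seeding. Dosing used one drug alone or a fixed anchor-drug dose plus five library-drug doses (not always all listed) in √10 steps, and values are medians of duplicate plates.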

[2] = test system: NCI-H1793
In short: as §1

[3] = test system: SW 1573
In short: as §1

[4] = test system: NCI-H1944
In short: as §1

[5] = test system: PC-3 [JPC-3]
In short: as §1

[6] = test system: H3255
In short: as §1

[7] = test system: LCLC-97TM1
In short: as §1

[8] = test system: A-427
In short: as §1

[9] = test system: SW 900
In short: as §1

[10] = test system: COR-L23
In short: as §1

[11] = test system: LCLC-103H
In short: as §1

[12] = test system: 201T
In short: as §1

[13] = test system: LU99A
In short: as §1

[14] = test system: NCI-H2347
In short: as §1

[15] = test system: NCI-H650
In short: as §1

[16] = test system: PC-14
In short: as §1

[17] = test system: NCI-H23
In short: as §1

[18] = test system: RERF-LC-KJ
In short: as §1

[19] = test system: LK-2
In short: as §1

[20] = test system: NCI-H727
In short: as §1

[21] = test system: NCI-H1651
In short: as §1

[22] = test system: NCI-H1650
In short: as §1

[23] = test system: NCI-H838
In short: as §1

In the case of `C[C@@H]1CN(CC(=O)Nc2ccc3c(c2)Cc2cccc(-c4cc(=O)cc(N5CCOCC5)o4)c2S3)C[C@H](C)O1` + O=C(CCCCCCC(=O)Nc1ccccc1)NO [Vorinostat] (partner 1 µM), the relative viability ([1]; first compound 0.04 µM) is reported as 0.69, the relative viability ([1]; first compound 0.1265 µM) is reported as 0.738 and the relative viability ([1]; first compound 0.4 µM) is reported as 0.704. For the same compound, the relative viability ([1]; first compound 4 µM) was 0.203, the relative viability ([2]; first compound 0.04 µM) was 0.847 and the relative viability ([2]; first compound 0.1265 µM) was 0.745. For the same compound, the relative viability ([2]; first compound 0.4 µM) was 0.762, the relative viability ([2]; first compound 4 µM) was 0.574 and the relative viability ([3]; first compound 0.04 µM) was 0.551. The relative viability ([3]; first compound 0.1265 µM) was 0.989, the relative viability ([3]; first compound 0.4 µM) was 0.909 and the relative viability ([3]; first compound 4 µM) was 0.769. It also gave a relative viability ([4]; first compound 0.1265 µM) of 0.716, a relative viability ([4]; first compound 0.4 µM) of 0.594 and a relative viability ([4]; first compound 4 µM) of 0.637. It also gave a relative viability ([5]; first compound 0.04 µM) of 0.822, a relative viability ([5]; first compound 0.1265 µM) of 0.792 and a relative viability ([5]; first compound 0.4 µM) of 0.821. For the same compound, the relative viability ([5]; first compound 4 µM) was 0.821, the relative viability ([6]; first compound 0.04 µM) was 0.634 and the relative viability ([6]; first compound 0.1265 µM) was 0.757. For the same compound, the relative viability ([6]; first compound 0.4 µM) was 0.985, the relative viability ([6]; first compound 4 µM) was 0.67 and the relative viability ([7]; first compound 0.1265 µM) was 0.547. For the same compound, the relative viability ([7]; first compound 0.4 µM) was 0.685, the relative viability ([7]; first compound 4 µM) was 0.552 and the relative viability ([8]; first compound 0.04 µM) was 0.853. The relative viability ([8]; first compound 0.1265 µM) was 0.92, the relative viability ([8]; first compound 0.4 µM) was 0.908 and the relative viability ([8]; first compound 4 µM) was 0.779. The relative viability ([9]; first compound 0.04 µM) was 0.421, the relative viability ([9]; first compound 0.1265 µM) was 0.607 and the relative viability ([9]; first compound 0.4 µM) was 0.534. The relative viability ([9]; first compound 4 µM) was 0.381, the relative viability ([10]; first compound 0.04 µM) was 0.433 and the relative viability ([10]; first compound 0.1265 µM) was 0.451. The relative viability ([10]; first compound 0.4 µM) was 0.473, the relative viability ([10]; first compound 4 µM) was 0.333 and the relative viability ([11]; first compound 0.04 µM) was 0.743. It also gave a relative viability ([11]; first compound 0.1265 µM) of 0.674, a relative viability ([11]; first compound 0.4 µM) of 0.804 and a relative viability ([11]; first compound 4 µM) of 0.706. It also gave a relative viability ([12]; first compound 0.04 µM) of 0.926, a relative viability ([12]; first compound 0.1265 µM) of 0.942 and a relative viability ([12]; first compound 0.4 µM) of 1.01. For the same compound, the relative viability ([12]; first compound 4 µM) was 0.81, the relative viability ([13]; first compound 0.04 µM) was 0.444 and the relative viability ([13]; first compound 0.1265 µM) was 0.582. The relative viability ([13]; first compound 0.4 µM) was 0.544, the relative viability ([13]; first compound 4 µM) was 0.595 and the relative viability ([14]; first compound 0.04 µM) was 0.564. It also gave a relative viability ([14]; first compound 0.1265 µM) of 0.623, a relative viability ([14]; first compound 0.4 µM) of 0.562 and a relative viability ([14]; first compound 4 µM) of 0.533. For the same compound, the relative viability ([15]; first compound 0.04 µM) was 0.364, the relative viability ([15]; first compound 0.1265 µM) was 0.386 and the relative viability ([15]; first compound 0.4 µM) was 0.39. The relative viability ([15]; first compound 4 µM) was 0.414, the relative viability ([16]; first compound 0.04 µM) was 0.75 and the relative viability ([16]; first compound 0.1265 µM) was 0.689. For the same compound, the relative viability ([16]; first compound 0.4 µM) was 0.705, the relative viability ([16]; first compound 4 µM) was 0.61 and the relative viability ([17]; first compound 0.04 µM) was 0.634. For the same compound, the relative viability ([17]; first compound 0.1265 µM) was 0.508, the relative viability ([17]; first compound 0.4 µM) was 0.537 and the relative viability ([17]; first compound 4 µM) was 0.589. It also gave a relative viability ([18]; first compound 0.04 µM) of 0.648, a relative viability ([18]; first compound 0.1265 µM) of 0.655 and a relative viability ([18]; first compound 0.4 µM) of 0.738. The relative viability ([18]; first compound 4 µM) was 0.543, the relative viability ([19]; first compound 0.04 µM) was 0.314 and the relative viability ([19]; first compound 0.1265 µM) was 0.309. The relative viability ([19]; first compound 0.4 µM) was 0.254, the relative viability ([19]; first compound 4 µM) was 0.298 and the relative viability ([20]; first compound 0.04 µM) was 1.03. For the same compound, the relative viability ([20]; first compound 0.1265 µM) was 1.17, the relative viability ([20]; first compound 0.4 µM) was 1.15 and the relative viability ([20]; first compound 4 µM) was 1.13. The relative viability ([21]; first compound 0.04 µM) was 0.541, the relative viability ([21]; first compound 0.1265 µM) was 0.535 and the relative viability ([21]; first compound 0.4 µM) was 0.538. The relative viability ([21]; first compound 4 µM) was 0.559, the relative viability ([22]; first compound 0.04 µM) was 0.604 and the relative viability ([22]; first compound 0.1265 µM) was 0.488. It also gave a relative viability ([22]; first compound 0.4 µM) of 0.588, a relative viability ([22]; first compound 4 µM) of 0.517 and a relative viability ([23]; first compound 0.04 µM) of 0.751. The relative viability ([23]; first compound 0.1265 µM) was 0.646, the relative viability ([23]; first compound 0.4 µM) was 0.633 and the relative viability ([23]; first compound 4 µM) was 0.535.
